Where two headings read alike, the source gives them in different places.
What was measured:
[1] = in vitro; details: pH 6; for Papp at 120 min, 0.1 µCi/mL: APP/PS1, mouse; for Papp at 120 min: WT, mouse
[2] = 120 min, mean ± SD
[3] = for time at which plasma concentrations reached a maximum: oral administration
[4] = in vivo; details: female, po
[5] = oral administration; cited from earlier work

SMILES: OC[C@@H](O)[C@@H](O)[C@H](O)[C@H](O)CO [^14C-Mannitol, mannitol]
- Papp at 120 min, 0.1 µCi/mL [1]: 6 ± 3.4 ×10⁻⁶ cm/s
- Papp at 120 min [1]: 10.7 ± 3.7 ×10⁻⁶ cm/s
- % of initial amount at 2 h (absorbed through jejunal tissue) ([2]; jejunum from APP/PS1 mice): 0.12 ± 0.04 %
- % of initial amount at 2 h (absorbed through jejunal tissue) ([2]; jejunum from WT mice): 0.17 ± 0.05%

SMILES: CCCCC(=O)N(Cc1ccc(-c2ccccc2-c2nnn[nH]2)cc1)[C@H](C(=O)O)C(C)C [Valsartan, valsartan]
- time at which plasma concentrations reached a maximum ([3]; APP/PS1 mice): 1 h
- time at which plasma concentrations reached a maximum ([3]; WT mice): 1 h
- Papp at 120 min [1]: 55.8 ± 16.7 ×10⁻⁶ cm/s

SMILES: Cn1c(=O)c2c(ncn2C)n(C)c1=O [Caffeine, caffeine]
- time post-dose at which Cmax appeared ([3]; oral dose of 5 mg/kg, present study): 0.5 h
- Papp at 120 min, 0.1 µCi/mL [1]: 27.2 ± 13.8 ×10⁻⁶ cm/s
- Papp at 120 min [1]: 31.4 ± 10.1 ×10⁻⁶ cm/s
- Kp ([4]; APP/PS1 (B6C3-Tg (APPswe, PSEN1dE9)85Dbo/Mmjax), mouse): 0.63 to 2.82
- Kp ([4]; WT littermates of APP/PS1, mouse): 1.07 to 2.78
- % of initial amount at 2 h (absorbed through jejunal tissue) ([2]; jejunum from APP/PS1 mice, listed as 14C-Caffeine): 0.46 ± 0.14%
- % of initial amount at 2 h (absorbed through jejunal tissue) ([2]; jejunum from APP/PS1 mice, listed as 14C-caffeine): 0.46%
- % of initial amount at 2 h (absorbed through jejunal tissue) ([2]; jejunum from WT mice, listed as 14C-Caffeine): 0.40 ± 0.09%
- % of initial amount at 2 h (absorbed through jejunal tissue) ([2]; jejunum from WT mice, listed as 14C-caffeine): 0.40%

SMILES: C[C@H]1O[C@@H](O[C@H]2[C@@H](O)C[C@H](O[C@H]3[C@@H](O)C[C@H](O[C@H]4CC[C@@]5(C)[C@H](CC[C@@H]6[C@@H]5C[C@@H](O)[C@]5(C)[C@@H](C7=CC(=O)OC7)CC[C@]65O)C4)O[C@@H]3C)O[C@@H]2C)C[C@H](O)[C@@H]1O [Digoxin, digoxin]
- time at which plasma concentrations reached a maximum ([3]; APP/PS1 mice): 0.5 h
- time at which plasma concentrations reached a maximum ([3]; WT mice): 0.5 h
- Papp at 120 min, 0.1 µCi/mL [1]: 14.5 ± 11 ×10⁻⁶ cm/s
- Papp at 120 min [1]: 64.2 ± 39.4 ×10⁻⁶ cm/s
- % of initial amount at 2 h (absorbed through jejunal tissue) ([2]; jejunum from APP/PS1 mice, listed as 3H-Digoxin): 0.22 ± 0.11 %
- % of initial amount at 2 h (absorbed through jejunal tissue) ([2]; jejunum from APP/PS1 mice, listed as 3H-digoxin): 0.22 ± 0.11%
- % of initial amount at 2 h (absorbed through jejunal tissue) ([2]; jejunum from WT mice, listed as 3H-Digoxin): 0.85 ± 0.30%
- % of initial amount at 2 h (absorbed through jejunal tissue) ([2]; jejunum from WT mice, listed as 3H-digoxin): 0.85 ± 0.3%

SMILES: CCN(C)C(=O)Oc1cccc([C@H](C)N(C)C)c1 [rivastigmine]
- plasma concentrations in people with AD compared to healthy volunteers [5]: significantly higher

SMILES: CN1C(=O)CN=C(c2ccccc2)c2cc(Cl)ccc21 [Diazepam, diazepam]
- % of initial amount at 2 h (absorbed through jejunal tissue) ([2]; jejunum from APP/PS1 mice, listed as 3H-Diazepam): 0.52 ± 0.12%
- % of initial amount at 2 h (absorbed through jejunal tissue) ([2]; jejunum from APP/PS1 mice, listed as 3H-diazepam): 0.52%
- % of initial amount at 2 h (absorbed through jejunal tissue) ([2]; jejunum from WT mice, listed as 3H-Diazepam): 0.42 ± 0.12%
- % of initial amount at 2 h (absorbed through jejunal tissue) ([2]; jejunum from WT mice, listed as 3H-diazepam): 0.42%
